In patent US20230242540A1, “COMPOUNDS HAVING ANTICANCER ACTIVITY” (The Trustees of Princeton University, priority 2020, published 2023):

Assays:
[1] = system: isogenic CHO cell line with high RFC expression; assay: Folate competition, IC50 in CHO cells with high RFC expression; assay type: cell-based; settings: Cricetulus griseus, folic acid free RPMI, 10 vol. % dialyzed FBS, 25 nM 5-formyl THF
Protocol: (§1) Compound 1 was tested relative to pemetrexed and methotrexate against two isogenic CHO cell lines with low and high RFC expression levels. […] Table II provides the IC50 values for Compound 1, Pemetrexed and Methotrexate.

[2] = system: isogenic CHO cell line with low RFC expression; assay: Folate competition, IC50 in CHO cells with low RFC expression; assay type: cell-based; settings: Cricetulus griseus, folic acid free RPMI, 10 vol. % dialyzed FBS, 25 nM 5-formyl THF
Protocol: as §1

[3] = system: MC38 mouse colon adenocarcinoma allograft; assay: MC38 mouse colon adenocarcinoma allograft; assay type: in vivo, female C57BL/6 mice; settings: 5 mg/kg intraperitoneally once daily, FIG. 5A
Protocol: To initiate allografts, 2×10^6 MC38 cells were injected subcutaneously at the flank of female C57BL/6 mice. Once the average tumor volume reaches 50 mm^3, IRS-17 (5 mg/kg body weight, dissolved in 10% 2-hydroxypropyl-β-cyclodextrin) and vehicle (10% 2-hydroxypropyl-β-cyclodextrin, 10 mL/kg body weight) are injected intraperitoneally once daily. After the final dose, mice were fasted for 12 hr. Then blood was collected by tail snip into a tube without anticoagulants. Serum was collected by taking the supernatant after centrifugation. Mice were then euthanized by cervical dislocation, and tumors are harvested and frozen in liquid N2. Tumor metabolites were extracted and measured as previously described in C. To extract serum metabolites, 2.5 μL of serum was added into 80 μL of methanol. Samples were centrifuged (16000 g for 10 min) at 4° C., and supernatant is collected.

[4] = system: Panc1 cell line; assay: Cell growth inhibition by resazurin, Panc1; assay type: cell-based; settings: Panc1, 4 days, with or without hypoxanthine and thymidine supplement, FIG. 1B
Protocol: (§2) Cells of (a) HCT116 and (b) Panc1 cell lines were each seeded in 96-well plates at the density of 3000/well in 80 μL of DMEM media supplemented with 10 vol % dialyzed FBS. The next day, 10 μL of media with or without hypoxanthine (1 mM) and thymidine (160 μM) was added to each well. 10 μL of Compound 1 diluted in media as 10× stock of desired concentration was also added. Relative cell number is measured by resazurin right before and 4 days after the addition of Compound 1. Namely, resazurin dissolved in phosphate-buffered saline (PBS) was added to each well to a final concentration of 10 μg/mL followed by 1-hour incubation at 37° C. Fluorescence (excitation 550 nm, emission 590 nm) is then measured by a microplate reader. […] Inhibition of growth in both cancer cell lines was achieved via disruption of purine and thymine synthesis.

[5] = system: HCT116 colorectal carcinoma xenograft; assay: HCT116 colorectal carcinoma xenograft; assay type: in vivo, female  mice; settings: 5 mg/kg intraperitoneally once daily
[6] = system: HCT116 cell line; assay: Cell growth inhibition by resazurin, HCT116; assay type: cell-based; settings: HCT116, 4 days, with or without hypoxanthine and thymidine supplement, FIG. 1A
Protocol: as §2

[7] = system: KPC pancreatic ductal adenocarcinoma allograft; assay: KPC pancreatic ductal adenocarcinoma allograft; assay type: in vivo, male C57BL/6 mice; settings: 5 mg/kg intraperitoneally once daily
Protocol: Tumor harvested from K-ras^LSL.G12D/+; Trp53^R172H/+; Pdx-1-Cre (KPC) mice was passaged at the flank of C57BL/6 subcutaneously. To initiate allografts, subcutaneous tumors were harvested and minced in DMEM media, mixed with equal volume of Matrigel basement membrane matrix (Corning 354234), and injected subcutaneously at the flank of male C57BL/6 mice. Tumors were measured twice per week. Once the average tumor volume reaches 100 mm^3, Compound 1 (5 mg/kg body weight, dissolved in 10% 2-hydroxypropyl-β-cyclodextrin) and vehicle (10% 2-hydroxypropyl-β-cyclodextrin, 10 mL/kg body weight) were injected intraperitoneally once daily, with continued tumor monitoring. At the end of experiment, mice were euthanized by cervical dislocation after being fasted for 6 hr. Tumors are collected into aluminum foil, clamped by a Wollenberg clamp pre-cooled in liquid N2, and kept cold in liquid N2.
To extract metabolites from tumor samples, tumors were first ground by a Cryomill (Retsch). About 10 mg of ground tissue is measured and extracted by extraction buffer (acetonitrile:methanol:H2O=2:2:1, then supplemented with 0.5 vol % formic acid) at the ratio of 370 μL buffer per 10 mg tissue. […] Metabolite levels were measured by Q Exactive Plus Hybrid Quadrupole-Orbitrap coupled with […] (HILIC) operating in the negative ionization mode.

Row | Compound | IC50 [1] | IC50 [2] | tumor volume over the treatment period [3] | cell growth [4] | change in tumor volume over time ([5]; FIG. 4A) | tumor doubling time ([5]; FIG. 4B) | cell growth [6] | change in tumor volume over time ([7]; FIG. 3A) | tumor doubling time ([7]; FIG. 3B)
1 | CN(Cc1cnc2nc(N)nc(N)c2n1)c1ccc(C(=O)N[C@@H](CCC(=O)O)C(=O)O)cc1 [Methotrexate] | 480 nM | 4000 nM |  |  |  |  |  |  | 
2 | Nc1nc2[nH]cc(CCc3ccc(C(=O)N[C@@H](CCC(=O)O)C(=O)O)cc3)c2c(=O)[nH]1 [Pemetrexed] | 150 nM | 800 nM |  |  |  |  |  |  | 
3 | C#Cc1ccc(Cn2ccc3c4c(N)nc(N)nc4ccc32)cc1 [Compound 1] | 0.06 nM | < 0.002 nM | some reduction in tumor volume | inhibited cell growth | substantially inhibited tumor growth | protracted tumor doubling time | inhibited cell growth | substantially inhibited tumor growth | protracted tumor doubling time
